According to patent US20150197497A1, “SELECTIVE INHIBITORS OF HISTONE DEACETYLASE ISOFORM 6 AND METHODS THEREOF” (DANA-FARBER CANCER INSTITUTE, INC., priority 2011, published 2015):

How the values were obtained:
[1] = biological target: T1, HDAC9 (Homo sapiens, UniProt Q9UKV0); assay: In vitro HDAC enzyme inhibition assay, HDAC9; assay type: biochemical; details: for HDAC9/HDAC6 in vitro selectivity: ratio of IC50 for HDAC9 relative to that of HDAC6; for IC50: recombinant full-length HDAC9, substrate MAZ1675 26 μM
T1 construct: Recombinant, full-length HDAC protein (BPS Biosciences) was incubated with fluorophore conjugated substrate; purchased BPS Biosciences
T1 sequence (Q9UKV0 whole entry): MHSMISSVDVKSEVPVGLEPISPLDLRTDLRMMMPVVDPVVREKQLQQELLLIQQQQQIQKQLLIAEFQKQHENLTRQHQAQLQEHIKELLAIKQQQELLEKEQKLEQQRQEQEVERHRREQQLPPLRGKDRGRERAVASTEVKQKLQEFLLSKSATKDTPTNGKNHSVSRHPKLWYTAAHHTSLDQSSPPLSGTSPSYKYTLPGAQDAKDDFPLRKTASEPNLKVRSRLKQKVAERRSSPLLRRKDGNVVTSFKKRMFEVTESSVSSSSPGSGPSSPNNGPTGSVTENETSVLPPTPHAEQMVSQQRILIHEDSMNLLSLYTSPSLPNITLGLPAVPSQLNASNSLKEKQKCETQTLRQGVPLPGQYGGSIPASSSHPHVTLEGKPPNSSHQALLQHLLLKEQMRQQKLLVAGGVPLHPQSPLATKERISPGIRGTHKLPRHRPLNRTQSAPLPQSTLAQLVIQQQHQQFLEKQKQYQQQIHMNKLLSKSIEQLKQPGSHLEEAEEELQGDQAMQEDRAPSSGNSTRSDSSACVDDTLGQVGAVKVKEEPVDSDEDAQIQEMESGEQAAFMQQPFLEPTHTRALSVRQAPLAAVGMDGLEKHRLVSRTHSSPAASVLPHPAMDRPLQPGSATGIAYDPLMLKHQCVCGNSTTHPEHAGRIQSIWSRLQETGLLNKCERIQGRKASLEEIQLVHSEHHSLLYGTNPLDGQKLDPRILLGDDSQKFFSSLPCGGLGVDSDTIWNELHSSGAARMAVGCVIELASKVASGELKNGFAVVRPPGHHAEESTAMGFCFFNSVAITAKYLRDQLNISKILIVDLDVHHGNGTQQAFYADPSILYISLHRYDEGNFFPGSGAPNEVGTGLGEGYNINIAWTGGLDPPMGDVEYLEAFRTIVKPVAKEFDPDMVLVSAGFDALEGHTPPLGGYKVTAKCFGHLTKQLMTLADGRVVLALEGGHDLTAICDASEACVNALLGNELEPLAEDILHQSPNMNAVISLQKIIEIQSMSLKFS
Description: (§1) In vitro Histone Deacetylase enzyme assays were performed using Class I (isoforms: HDAC1, HDAC2, HDAC3 and HDAC8), class IIa (isoforms: HDAC4, HDAC5, HDAC7 and HDAC9) and class IIb (isoform HDAC6).
(§2) HDAC activities were determined in vitro with an optimized homogenous assay performed in a 384-well plate. Recombinant, full-length HDAC protein (BPS Biosciences) was incubated with fluorophore conjugated substrate, MAZ1600 and MAZ1675, at Km=[S]. […] Reactions were performed in assay buffer (50 mM HEPES, 100 mM KCl, 0.001% Tween-20, 0.05% BSA, 200 μM tris(2-carboxyethyl)phosphine (TCEP), pH 7.4) and followed for fluorogenic release of 7-amino-4-methylcoumarin from substrate upon deacetylase and trypsin enzymatic activity. Fluorescence measurements were obtained every five minutes using a multilabel plate reader and plate-stacker (Envision; Perkin-Elmer). Each plate was analyzed by plate repeat, and the first derivative within the linear range was imported into analytical software (Spotfire DecisionSite and GraphPad Prism). Replicate experimental data from incubations with inhibitor were normalized to controls.

[2] = system: acetylated tubulin; assay: High-content image analysis of induction of acetylated tubulin in A549 cells; details: for EC50: Homo sapiens, A549, 8 h, read-out: EC50 for half-maximal induction of acetylated tubulin (AcTubulin); for AcHistone/AcTubulin in cell selectivity toward HDAC6: ratio of EC50 acetylated histone to EC50 acetylated tubulin, A549 cells
Description: (§3) Cells were treated with each test HDACi compound with an automated pin transfer instrument (Janus, Perkin Elmer) and incubated for 8 hours. […] Fixation solution was aspirated and 90 μL of washing solution (0.1% Triton X-100 in PBS) was added prior to 10 minute incubation at 4° C. Washing solution was aspirated and cells were incubated at 4° C. for about 1 hour in blocking solution (0.1% Triton X-100+2% BSA in PBS). Washing solution was aspirated, and cells were incubated for about 1 hour at 4° C. in primary antibody for acetylated-tubulin (Sigma T7451) and acetylated-histone (Cell Signaling #9441L) at a 1:1000 dilution in blocking solution. Primary antibody solution was aspirated, and cells were washed three times in 90 μL of washing solution. […] Secondary antibody and nuclear staining solution was aspirated and cells were washed three times in 90 μL of washing solution. After the third wash, 50 μL of PBS was added to each well. Image acquisition was done on a high content imaging microscope (ImageXpress Micro, Molecular Devices), and image analysis (MetaXpress, Molecular Devices) was performed to obtain average acetylated-tubulin and acetylated-histone signal per cell based on treatment. Replicate experimental data from incubations with inhibitor were normalized to DMSO controls.

[3] = system: acetylated histones; assay: High-content image analysis of induction of acetylated histones in A549 cells; details: Homo sapiens, A549, 8 h, read-out: EC50 for half-maximal induction of acetylated histones (AcHistone)
Description: as §3

[4] = biological target: T2, HDAC7 (Homo sapiens, UniProt Q8WUI4); assay: In vitro HDAC enzyme inhibition assay, HDAC7; assay type: biochemical; details: for HDAC7/HDAC6 in vitro selectivity: ratio of IC50 for HDAC7 relative to that of HDAC6; for IC50: recombinant full-length HDAC7, substrate MAZ1675 22 μM
T2 construct: Recombinant, full-length HDAC protein (BPS Biosciences) was incubated with fluorophore conjugated substrate; purchased BPS Biosciences
T2 sequence (Q8WUI4 1-952): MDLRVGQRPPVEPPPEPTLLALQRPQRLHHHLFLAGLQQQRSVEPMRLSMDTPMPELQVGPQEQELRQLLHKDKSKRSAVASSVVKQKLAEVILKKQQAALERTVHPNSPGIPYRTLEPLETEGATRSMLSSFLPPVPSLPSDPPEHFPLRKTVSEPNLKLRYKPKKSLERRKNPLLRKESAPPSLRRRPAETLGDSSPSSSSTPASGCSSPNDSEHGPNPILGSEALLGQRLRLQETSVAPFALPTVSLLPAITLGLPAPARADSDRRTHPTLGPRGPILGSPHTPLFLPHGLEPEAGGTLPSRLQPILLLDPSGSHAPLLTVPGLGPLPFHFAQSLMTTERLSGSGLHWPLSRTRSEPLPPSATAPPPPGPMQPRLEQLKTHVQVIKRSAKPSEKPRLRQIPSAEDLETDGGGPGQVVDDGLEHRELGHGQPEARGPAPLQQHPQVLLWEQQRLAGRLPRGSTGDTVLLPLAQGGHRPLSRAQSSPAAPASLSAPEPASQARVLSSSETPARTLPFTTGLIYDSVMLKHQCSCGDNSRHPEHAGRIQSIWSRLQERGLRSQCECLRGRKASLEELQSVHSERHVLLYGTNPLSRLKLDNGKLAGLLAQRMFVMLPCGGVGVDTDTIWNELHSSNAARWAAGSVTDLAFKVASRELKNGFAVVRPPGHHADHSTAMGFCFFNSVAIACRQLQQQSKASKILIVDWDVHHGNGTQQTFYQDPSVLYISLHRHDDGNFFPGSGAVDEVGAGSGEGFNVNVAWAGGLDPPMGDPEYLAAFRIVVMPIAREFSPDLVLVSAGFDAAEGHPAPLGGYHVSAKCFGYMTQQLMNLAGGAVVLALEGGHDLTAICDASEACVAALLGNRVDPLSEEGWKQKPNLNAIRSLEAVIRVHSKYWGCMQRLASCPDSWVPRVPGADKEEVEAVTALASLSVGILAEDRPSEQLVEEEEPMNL
Description: as §1, §2

[5] = biological target: T3, HDAC4 (Homo sapiens, UniProt P56524); assay: In vitro HDAC enzyme inhibition assay, HDAC4; assay type: biochemical; details: for HDAC4/HDAC6 in vitro selectivity: ratio of IC50 for HDAC4 relative to that of HDAC6; for IC50: recombinant full-length HDAC4, substrate MAZ1675 10 μM
T3 construct: Recombinant, full-length HDAC protein (BPS Biosciences) was incubated with fluorophore conjugated substrate; purchased BPS Biosciences
T3 sequence (P56524 whole entry): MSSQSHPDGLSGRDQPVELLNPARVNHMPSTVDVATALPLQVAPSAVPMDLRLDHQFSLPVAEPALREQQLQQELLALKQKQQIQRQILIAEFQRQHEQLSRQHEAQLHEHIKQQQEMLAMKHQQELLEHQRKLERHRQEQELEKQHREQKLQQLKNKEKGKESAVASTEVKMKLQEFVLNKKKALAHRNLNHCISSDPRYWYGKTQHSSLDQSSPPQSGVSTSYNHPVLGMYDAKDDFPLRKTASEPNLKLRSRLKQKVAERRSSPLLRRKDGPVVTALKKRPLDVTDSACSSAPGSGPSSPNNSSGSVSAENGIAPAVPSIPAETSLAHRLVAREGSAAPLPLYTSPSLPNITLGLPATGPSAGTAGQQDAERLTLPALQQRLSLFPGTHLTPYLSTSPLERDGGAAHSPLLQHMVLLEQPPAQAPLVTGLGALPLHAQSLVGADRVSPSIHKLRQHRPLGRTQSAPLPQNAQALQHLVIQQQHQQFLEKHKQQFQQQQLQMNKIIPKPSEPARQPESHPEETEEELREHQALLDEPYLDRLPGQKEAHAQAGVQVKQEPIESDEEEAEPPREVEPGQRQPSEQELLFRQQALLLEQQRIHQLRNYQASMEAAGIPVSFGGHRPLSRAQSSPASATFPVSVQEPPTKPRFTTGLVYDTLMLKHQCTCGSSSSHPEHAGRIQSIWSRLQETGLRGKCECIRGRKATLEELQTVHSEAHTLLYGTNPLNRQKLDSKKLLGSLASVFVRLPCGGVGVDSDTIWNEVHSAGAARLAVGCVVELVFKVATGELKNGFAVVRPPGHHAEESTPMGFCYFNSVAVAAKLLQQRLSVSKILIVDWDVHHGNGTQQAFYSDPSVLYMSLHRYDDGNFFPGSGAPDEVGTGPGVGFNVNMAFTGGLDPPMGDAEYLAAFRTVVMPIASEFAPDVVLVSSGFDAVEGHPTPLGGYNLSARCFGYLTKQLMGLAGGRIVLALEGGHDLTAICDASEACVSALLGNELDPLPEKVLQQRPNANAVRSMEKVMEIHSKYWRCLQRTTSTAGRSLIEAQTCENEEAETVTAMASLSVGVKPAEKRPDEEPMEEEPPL
Description: as §1, §2

[6] = biological target: T4, HDAC3 (Homo sapiens, UniProt O15379); assay: In vitro HDAC enzyme inhibition assay, HDAC3; assay type: biochemical; details: for HDAC3/HDAC6 in vitro selectivity: ratio of IC50 for HDAC3 relative to that of HDAC6; for IC50: recombinant full-length HDAC3, substrate MAZ1600 9 μM
T4 construct: Recombinant, full-length HDAC protein (BPS Biosciences) was incubated with fluorophore conjugated substrate; purchased BPS Biosciences
T4 sequence (O15379 whole entry): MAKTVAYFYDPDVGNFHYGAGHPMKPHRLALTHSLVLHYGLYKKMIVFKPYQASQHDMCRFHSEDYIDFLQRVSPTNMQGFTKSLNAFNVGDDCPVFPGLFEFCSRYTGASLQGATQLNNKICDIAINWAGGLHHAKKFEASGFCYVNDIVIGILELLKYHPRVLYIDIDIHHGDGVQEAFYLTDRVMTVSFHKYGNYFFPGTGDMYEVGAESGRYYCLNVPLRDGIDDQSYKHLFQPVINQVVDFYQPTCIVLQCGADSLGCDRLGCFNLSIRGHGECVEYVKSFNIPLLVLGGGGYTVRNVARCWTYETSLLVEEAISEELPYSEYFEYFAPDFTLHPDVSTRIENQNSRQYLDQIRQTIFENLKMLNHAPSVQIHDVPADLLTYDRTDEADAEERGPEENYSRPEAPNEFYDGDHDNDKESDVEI
T4 sequence (Q9Y618 395-489 partner limits assumed): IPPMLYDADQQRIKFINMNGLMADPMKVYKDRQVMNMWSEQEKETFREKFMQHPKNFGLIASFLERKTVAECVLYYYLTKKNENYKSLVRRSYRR
Description: as §1, §2

[7] = biological target: T5, HDAC2 (Homo sapiens, UniProt Q92769); assay: In vitro HDAC enzyme inhibition assay, HDAC2; assay type: biochemical; details: for HDAC2/HDAC6 in vitro selectivity: ratio of IC50 for HDAC2 relative to that of HDAC6; for IC50: recombinant full-length HDAC2, substrate MAZ1600 22 μM
T5 construct: Recombinant, full-length HDAC protein (BPS Biosciences) was incubated with fluorophore conjugated substrate; purchased BPS Biosciences
T5 sequence (Q92769 whole entry): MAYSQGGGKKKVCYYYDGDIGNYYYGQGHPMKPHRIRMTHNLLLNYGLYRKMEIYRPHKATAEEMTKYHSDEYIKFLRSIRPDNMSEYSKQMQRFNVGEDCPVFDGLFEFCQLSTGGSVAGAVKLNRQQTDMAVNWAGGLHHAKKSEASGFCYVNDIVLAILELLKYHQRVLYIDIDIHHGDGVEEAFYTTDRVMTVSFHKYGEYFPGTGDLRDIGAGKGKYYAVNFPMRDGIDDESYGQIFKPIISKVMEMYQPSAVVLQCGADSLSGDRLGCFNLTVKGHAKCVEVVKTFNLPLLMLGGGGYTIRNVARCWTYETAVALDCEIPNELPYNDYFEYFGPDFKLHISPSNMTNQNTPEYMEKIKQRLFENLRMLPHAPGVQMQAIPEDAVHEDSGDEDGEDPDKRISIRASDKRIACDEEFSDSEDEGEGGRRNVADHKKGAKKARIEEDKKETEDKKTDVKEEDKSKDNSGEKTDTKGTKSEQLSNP
Description: as §1, §2

[8] = biological target: T6, HDAC8 (Homo sapiens, UniProt Q9BY41); assay: In vitro HDAC enzyme inhibition assay, HDAC8; assay type: biochemical; details: for HDAC8/HDAC6 in vitro selectivity: ratio of IC50 for HDAC8 relative to that of HDAC6; for IC50: recombinant full-length HDAC8, substrate MAZ1675 282 μM
T6 construct: Recombinant, full-length HDAC protein (BPS Biosciences) was incubated with fluorophore conjugated substrate; purchased BPS Biosciences
T6 sequence (Q9BY41 1-377): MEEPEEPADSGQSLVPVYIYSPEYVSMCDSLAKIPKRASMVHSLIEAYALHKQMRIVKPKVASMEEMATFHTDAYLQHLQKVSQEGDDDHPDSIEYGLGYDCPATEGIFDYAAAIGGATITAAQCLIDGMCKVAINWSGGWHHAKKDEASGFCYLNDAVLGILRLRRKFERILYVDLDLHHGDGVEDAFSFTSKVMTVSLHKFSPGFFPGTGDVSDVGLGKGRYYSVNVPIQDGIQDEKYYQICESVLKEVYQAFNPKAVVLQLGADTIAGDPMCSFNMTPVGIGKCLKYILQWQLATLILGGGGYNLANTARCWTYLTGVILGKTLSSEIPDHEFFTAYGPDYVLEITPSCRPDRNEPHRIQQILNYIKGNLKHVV
Description: as §1, §2

[9] = biological target: T7, HDAC1 (Homo sapiens, UniProt Q13547); assay: In vitro HDAC enzyme inhibition assay, HDAC1; assay type: biochemical; details: for HDAC1/HDAC6 in vitro selectivity: ratio of IC50 for HDAC1 relative to that of HDAC6; for IC50: recombinant full-length HDAC1, substrate MAZ1600 21 μM
T7 construct: Recombinant, full-length HDAC protein (BPS Biosciences) was incubated with fluorophore conjugated substrate; purchased BPS Biosciences
T7 sequence (Q13547 whole entry): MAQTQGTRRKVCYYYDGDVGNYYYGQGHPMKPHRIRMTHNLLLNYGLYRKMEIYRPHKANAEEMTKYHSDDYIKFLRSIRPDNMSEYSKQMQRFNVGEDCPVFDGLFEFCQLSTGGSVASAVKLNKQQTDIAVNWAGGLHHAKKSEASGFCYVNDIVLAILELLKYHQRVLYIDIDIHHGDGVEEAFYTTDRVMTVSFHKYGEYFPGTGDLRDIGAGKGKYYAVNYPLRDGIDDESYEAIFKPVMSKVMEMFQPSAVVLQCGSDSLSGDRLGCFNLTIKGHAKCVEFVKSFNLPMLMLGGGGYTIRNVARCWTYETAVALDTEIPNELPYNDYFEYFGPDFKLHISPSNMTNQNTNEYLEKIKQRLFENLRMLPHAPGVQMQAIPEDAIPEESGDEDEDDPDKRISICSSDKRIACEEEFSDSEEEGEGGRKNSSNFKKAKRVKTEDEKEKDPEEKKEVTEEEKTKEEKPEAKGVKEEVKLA
Description: as §1, §2

[10] = biological target: T8, HDAC5 (Homo sapiens, UniProt Q9UQL6); assay: In vitro HDAC enzyme inhibition assay, HDAC5; assay type: biochemical; details: for HDAC5/HDAC6 in vitro selectivity: ratio of IC50 for HDAC5 relative to that of HDAC6; for IC50: recombinant full-length HDAC5, substrate MAZ1675 40 μM
T8 construct: Recombinant, full-length HDAC protein (BPS Biosciences) was incubated with fluorophore conjugated substrate; purchased BPS Biosciences
T8 sequence (Q9UQL6 whole entry): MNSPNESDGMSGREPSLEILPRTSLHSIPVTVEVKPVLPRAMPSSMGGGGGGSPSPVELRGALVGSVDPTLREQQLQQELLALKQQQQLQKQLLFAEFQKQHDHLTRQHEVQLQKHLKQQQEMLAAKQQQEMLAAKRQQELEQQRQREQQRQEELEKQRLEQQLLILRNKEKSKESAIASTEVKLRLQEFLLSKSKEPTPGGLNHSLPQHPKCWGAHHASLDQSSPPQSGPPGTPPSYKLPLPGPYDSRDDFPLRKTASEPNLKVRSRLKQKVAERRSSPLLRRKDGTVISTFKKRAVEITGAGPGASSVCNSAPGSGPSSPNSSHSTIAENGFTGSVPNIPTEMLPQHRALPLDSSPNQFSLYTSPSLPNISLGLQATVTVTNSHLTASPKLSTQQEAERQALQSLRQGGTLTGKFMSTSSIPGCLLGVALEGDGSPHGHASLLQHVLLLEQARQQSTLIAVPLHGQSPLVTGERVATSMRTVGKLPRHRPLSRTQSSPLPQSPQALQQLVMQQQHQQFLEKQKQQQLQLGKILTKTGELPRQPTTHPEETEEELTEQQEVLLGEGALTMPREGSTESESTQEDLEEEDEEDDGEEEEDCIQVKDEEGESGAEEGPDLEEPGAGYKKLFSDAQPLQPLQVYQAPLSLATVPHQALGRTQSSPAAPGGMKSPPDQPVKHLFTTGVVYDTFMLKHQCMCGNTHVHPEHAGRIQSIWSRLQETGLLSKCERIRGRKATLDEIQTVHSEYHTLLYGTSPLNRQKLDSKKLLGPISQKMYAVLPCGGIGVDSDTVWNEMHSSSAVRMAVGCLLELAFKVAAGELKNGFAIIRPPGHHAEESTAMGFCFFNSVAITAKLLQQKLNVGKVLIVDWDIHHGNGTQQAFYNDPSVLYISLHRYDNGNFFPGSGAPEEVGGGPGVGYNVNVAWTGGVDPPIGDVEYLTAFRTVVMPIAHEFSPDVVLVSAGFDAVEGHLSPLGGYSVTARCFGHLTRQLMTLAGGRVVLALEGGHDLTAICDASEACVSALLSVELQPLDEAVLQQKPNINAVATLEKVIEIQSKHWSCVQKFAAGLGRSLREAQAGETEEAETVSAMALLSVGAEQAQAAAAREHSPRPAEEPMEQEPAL
Description: as §1, §2

| Structure (SMILES) | HDAC9/HDAC6 in vitro selectivity [1] | IC50 [1] | EC50 [2] | AcHistone/AcTubulin in cell selectivity toward HDAC6 [2] | EC50 [3] | HDAC7/HDAC6 in vitro selectivity [4] | IC50 [4] | HDAC4/HDAC6 in vitro selectivity [5] | IC50 [5] | HDAC3/HDAC6 in vitro selectivity [6] | IC50 [6] | HDAC2/HDAC6 in vitro selectivity [7] | IC50 [7] | HDAC8/HDAC6 in vitro selectivity [8] | IC50 [8] | HDAC1/HDAC6 in vitro selectivity [9] | IC50 [9] | HDAC5/HDAC6 in vitro selectivity [10] | IC50 [10] | selectivity toward HDAC6 compared to HDAC9 (in words) ([1]; tested in vitro) |
| --- | --- | --- | --- | --- | --- | --- | --- | --- | --- | --- | --- | --- | --- | --- | --- | --- | --- | --- | --- | --- |
| COc1ccc2c(c1)nc(C(F)(F)F)n2Cc1ccc(C(=O)NO)cc1 [A6, N-hydroxy-4-((5-methoxy-2-(trifluoromethyl)-1H-benzo[d]imidazol-1-yl)methyl)benzamide] | 1871 | 733 nM | 212 nM | 12.2081 | 2590 nM | 1058 | 414 nM | 2414 | 946 nM | 2067 | 810 nM | 522 | 205 nM | 3927 | 1540 nM | 629 | 246 nM | 637 | 250 nM |  |
| O=C(NO)c1ccc(Cn2cnc3ccccc32)cc1 [A7] | 16631 | 1630 nM | 159 nM | 1.459 | 232 nM | 2606 | 255 nM | 17962 | 1760 nM | 4791 | 469 nM | 1853 | 181 nM | 6573 | 643 nM | 2695 | 264 nM | 9794 | 958 nM |  |
| Cc1ccc2c(c1)ncn2Cc1ccc(C(=O)NO)cc1 [A8, N-hydroxy-4-((5-methyl-1H-benzo[d]imidazol-1-yl)methyl)benzamide] | 5975 | 2280 nM | 105 nM | 0.7591 | 79.5 nM | 1098 | 418 nM | 7247 | 2760 nM | 1596 | 608 nM | 762 | 290 nM | 2847 | 1080 nM | 688 | 262 nM | 3687 | 1400 nM |  |
| O=C(NO)c1ccc(Cn2cnc3cc(F)ccc32)cc1 [A9, 4-((5-fluoro-1H-benzo[d]imidazol-1-yl)methyl)-N-hydroxybenzamide] | 32978 | 2190 nM | 132 nM | 0.4765 | 62.7 nM | 4925 | 327 nM | 28751 | 1910 nM | 9140 | 606 nM | 3132 | 208 nM | 12348 | 819 nM | 2812 | 186 nM | 15350 | 1020 nM | exceptionally high selectivity (Inhibitors with in vitro selectivity values for HDAC6 of at least 30,000 are considered to have exceptionally high selectivity toward HDAC6) |
| O=C(NO)c1ccc(Cn2cnc3cc(Cl)ccc32)cc1 [A10, 4-((5-chloro-1H-benzo[d]imidazol-1-yl)methyl)-N-hydroxybenzamide] | 17278 | 1190 nM | 188 nM | 4.787 | 900 nM | 4029 | 278 nM | 21516 | 1480 nM | 3046 | 210 nM | 1364 | 94.1 nM | 7524 | 519 nM | 1399 | 96.5 nM | 9686 | 668 nM |  |
